Drawing on publication PMC9280689, “Resistance to Powdery Mildew in Qingke Involves the Accumulation of Aromatic Phenolamides Through Jasmonate-Mediated Activation of Defense-Related Genes” (Frontiers in Plant Science, 2022), this text covers Km for one compound.

In general, Km refers to the substrate concentration at which the rate is half of its maximum.

The target of this test is T1, HvTBT2 (Hordeum vulgare, UniProt A0A8I6X4Z6).
T1 construct: gene LOC123447140; full-length cDNA in pGEX-6p-1, GST fusion, E. coli BL21(DE3), purified
T1 sequence (A0A8I6X4Z6 entry or part of it): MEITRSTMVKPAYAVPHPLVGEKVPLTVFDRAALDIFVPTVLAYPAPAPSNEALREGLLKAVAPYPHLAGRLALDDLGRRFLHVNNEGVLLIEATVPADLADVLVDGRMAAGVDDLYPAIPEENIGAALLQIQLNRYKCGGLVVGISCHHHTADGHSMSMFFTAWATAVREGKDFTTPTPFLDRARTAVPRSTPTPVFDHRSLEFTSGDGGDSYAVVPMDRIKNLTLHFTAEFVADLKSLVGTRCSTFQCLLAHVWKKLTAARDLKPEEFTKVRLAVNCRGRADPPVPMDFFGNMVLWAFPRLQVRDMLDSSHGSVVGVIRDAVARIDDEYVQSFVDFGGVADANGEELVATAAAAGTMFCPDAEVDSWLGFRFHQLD
Briefly: LC-MS product assay. The format is biochemical. Particulars: acyl donor; amine acceptor 100 μM (which amine not told); 10 mM MgCl2, Tris-HCl pH 7.4, 30 °C. An excerpt:
LC-MS product assay on HvTBT2

On to `COc1cc(/C=C/C(=O)SCCNC(=O)CCNC(=O)[C@H](O)C(C)(C)COP(=O)(O)OP(=O)(O)OC[C@H]2O[C@@H](n3cnc4c(N)ncnc43)[C@H](O)[C@@H]2OP(=O)(O)O)ccc1O` [Feruloyl-CoA], for which the Michaelis constant (Km) stood at 382 ± 98.3 µM.
